We go through 4 compounds from patent publication US9452225B2, “GLP-1 prodrugs” (Novo Nordisk A/S, priority 2012, dated 2016).

This series in a line: Prodrug half-life in vitro, buffer method. In kind it is physicochemical. The protocol:
The purpose of this example is to test the in vitro half-lives (T½) of the GLP-1 prodrugs of the invention, in comparison to conceptually different prodrugs. In what follows two in vitro methods are described, viz. a method conducted in buffer, and a method conducted in plasma.
Buffer: 25 mM Phosphate (Ionic strength: 154 mM, pH 7.4 at 37° C.)
NaH2PO4.2H2O (1.95 g, 12.5 mmol) and NaCl (2.61 g, 44.7 mmol) were dissolved in millipore water (approximately 450 mL) and adjusted to pH=7.44 at approximately 20° C. with concentrated NaOH and 1 M NaOH. Water was added to 500.00 mL.
The compound to be tested was dissolved in buffer to a concentration of 1.0 mg/mL and incubated at 37° C. Samples were taken at adequate intervals and the % parent drug compared to prodrug formed as function of time was evaluated by the UPLC method as referred to in Table 1 by comparing the areas under the curves for the two corresponding peaks. These UPLC methods are described in the general experimental section above (UPLC_A, and UPLC_B).
The half life of the prodrug (T½) was calculated from the slope of a linear fit to the curve of ln(% prodrug (Y)) as a function of time (t), as follows: Y=÷αt+k Math. 1 T½=ln(2)/α Math. 2 Plasma Method Buffer: 200 mM Phosphate, pH 7.4 at 37° C.
The resulting half-lives are set out in Table 1 below. For comparison, the T½ in buffer of native GLP-1(7-37) (His7 variant of SEQ ID NO: 1) was 13 minutes (0.2 hours).

[1] abbreviates: 25 mM phosphate buffer pH 7.4, 37° C., 1.0 mg/mL, UPLC_A, or UPLC_B for compounds marked *, read-out: T½ in buffer (converted).

Molecules are shown by their SMILES. Where two headings read alike, the source gives them in different places. Numbered stars: 1 amine (or outer) side, 2 acyl side, 3 side chain; on linkers, the order of the positions; unused ones are H or OH. Square brackets hold non-standard residues; d marks the D form. Side chains are listed from the residue outwards. Peptide text beside a SMILES is read from it. * marks the point of attachment. Decanoyl(10-(4-HOOC-PhO)) = O=C(O)c1ccc(OCCCCCCCCCC(=O)*)cc1; Lac(3-(imidazol-4-yl)) = O=C(O)[C@@H](O)Cc1c[nH]cn1; C18 diacid = O=C(O)CCCCCCCCCCCCCCCCC(=O)*; γGlu = O=C(O)[C@H](CCC(=O)[*:2])N[*:1]; NMeI = CC[C@H](C)[C@H](NC)C(=O)O; AEEA = NCCOCCOCC(=O)O; Aib = CC(C)(N)C(=O)O; Glycolyl = O=C(CO)*

On to `CC[C@H](C)[C@H](NC(=O)[C@H](Cc1ccccc1)NC(=O)[C@H](CCC(=O)O)NC(=O)[C@H](CCCNC(=N)N)NC(=O)[C@@H](NC(=O)[C@H](C)NC(=O)[C@H](CCC(N)=O)NC(=O)[C@H](CCC(=O)O)NC(=O)[C@H](CCC(=O)O)NC(=O)[C@H](CC(C)C)NC(=O)[C@H](Cc1ccc(O)cc1)NC(=O)[C@H](CCCCNC(=O)COCCOCCNC(=O)COCCOCCNC(=O)CC[C@H](NC(=O)CCCCCCCCCOc1ccc(C(=O)O)cc1)C(=O)O)NC(=O)[C@H](CO)NC(=O)[C@@H](NC(=O)[C@H](CC(=O)O)NC(=O)[C@H](CO)NC(=O)[C@@H](NC(=O)[C@H](Cc1ccccc1)NC(=O)[C@@H](NC(=O)CNC(=O)[C@H](CCC(=O)O)NC(=O)[C@H](C)NC(=O)[C@H](Cc1c[nH]cn1)OC(=O)[C@@H](NC(=O)CN)C(C)C)[C@@H](C)O)[C@@H](C)O)C(C)C)C(C)C)C(=O)N[C@@H](C)C(=O)N[C@@H](CCCCNC(=O)COCCOCCNC(=O)COCCOCCNC(=O)CC[C@H](NC(=O)CCCCCCCCCOc1ccc(C(=O)O)cc1)C(=O)O)C(=O)N[C@@H](CC(C)C)C(=O)N[C@H](C(=O)N[C@@H](CCCNC(=N)N)C(=O)NCC(=O)N[C@@H](CCCNC(=N)N)C(=O)NCC(=O)O)C(C)C` [Example 1a] (H-GV[Lac(3-(imidazol-4-yl))]AEGTFTSDVSK([AEEA-AEEA-γGlu-Decanoyl(10-(4-HOOC-PhO))])YLEEQAVREFIAK([AEEA-AEEA-γGlu-Decanoyl(10-(4-HOOC-PhO))])LVRGRG-OH), for which the half-life at 1 mg/mL under setting [1] was 1.5 h.

For `CC[C@H](C)[C@H](NC(=O)[C@H](Cc1ccccc1)NC(=O)[C@H](CCC(=O)O)NC(=O)[C@H](CCCNC(=N)N)NC(=O)[C@@H](NC(=O)[C@H](C)NC(=O)[C@H](CCC(N)=O)NC(=O)[C@H](CCC(=O)O)NC(=O)[C@H](CCC(=O)O)NC(=O)[C@H](CC(C)C)NC(=O)[C@H](Cc1ccc(O)cc1)NC(=O)[C@H](CCCCNC(=O)COCCOCCNC(=O)COCCOCCNC(=O)CC[C@H](NC(=O)CCCCCCCCCOc1ccc(C(=O)O)cc1)C(=O)O)NC(=O)[C@H](CO)NC(=O)[C@@H](NC(=O)[C@H](CC(=O)O)NC(=O)[C@H](CO)NC(=O)[C@@H](NC(=O)[C@H](Cc1ccccc1)NC(=O)[C@@H](NC(=O)CNC(=O)[C@H](CCC(=O)O)NC(=O)[C@H](C)NC(=O)[C@H](Cc1c[nH]cn1)OC(=O)[C@@H](NC(=O)CO)C(C)C)[C@@H](C)O)[C@@H](C)O)C(C)C)C(C)C)C(=O)N[C@@H](C)C(=O)N[C@@H](CCCCNC(=O)COCCOCCNC(=O)COCCOCCNC(=O)CC[C@H](NC(=O)CCCCCCCCCOc1ccc(C(=O)O)cc1)C(=O)O)C(=O)N[C@@H](CC(C)C)C(=O)N[C@H](C(=O)N[C@@H](CCCNC(=N)N)C(=O)NCC(=O)N[C@@H](CCCNC(=N)N)C(=O)NCC(=O)O)C(C)C` [Example 1b] (Glycolyl-V[Lac(3-(imidazol-4-yl))]AEGTFTSDVSK([AEEA-AEEA-γGlu-Decanoyl(10-(4-HOOC-PhO))])YLEEQAVREFIAK([AEEA-AEEA-γGlu-Decanoyl(10-(4-HOOC-PhO))])LVRGRG-OH), the half-life at 1 mg/mL under setting [1] was 0.65 h. Turning to `CC[C@H](C)[C@H](NC)C(=O)N[C@H](C(=O)O[C@@H](Cc1c[nH]cn1)C(=O)NC(C)(C)C(=O)N[C@@H](CCC(=O)O)C(=O)NCC(=O)N[C@H](C(=O)N[C@@H](Cc1ccccc1)C(=O)N[C@H](C(=O)N[C@@H](CO)C(=O)N[C@@H](CC(=O)O)C(=O)N[C@H](C(=O)N[C@@H](CO)C(=O)N[C@@H](CO)C(=O)N[C@@H](Cc1ccc(O)cc1)C(=O)N[C@@H](CC(C)C)C(=O)N[C@@H](CCC(=O)O)C(=O)N[C@@H](CCC(=O)O)C(=O)N[C@@H](CCC(N)=O)C(=O)N[C@@H](C)C(=O)N[C@@H](C)C(=O)N[C@@H](CCCNC(=N)N)C(=O)N[C@@H](CCCCNC(=O)COCCOCCNC(=O)COCCOCCNC(=O)CC[C@H](NC(=O)CCCCCCCCCCCCCCCCC(=O)O)C(=O)O)C(=O)N[C@@H](Cc1ccccc1)C(=O)N[C@H](C(=O)N[C@@H](C)C(=O)N[C@@H](Cc1c[nH]c2ccccc12)C(=O)N[C@@H](CC(C)C)C(=O)N[C@H](C(=O)N[C@@H](CCCNC(=N)N)C(=O)NCC(=O)N[C@@H](CCCNC(=N)N)C(=O)NCC(=O)O)C(C)C)[C@@H](C)CC)C(C)C)[C@@H](C)O)[C@@H](C)O)C(C)C` [Example 6] (H-[NMeI]V[Lac(3-(imidazol-4-yl))][Aib]EGTFTSDVSSYLEEQAARK([AEEA-AEEA-γGlu-C18 diacid])FIAWLVRGRG-OH), the half-life at 1 mg/mL (buffer, pH 7.4) was 45.6 h.

Consider `CC[C@H](C)[C@H](N)C(=O)N[C@H](C(=O)O[C@@H](Cc1c[nH]cn1)C(=O)NC(C)(C)C(=O)N[C@@H](CCC(=O)O)C(=O)NCC(=O)N[C@H](C(=O)N[C@@H](Cc1ccccc1)C(=O)N[C@H](C(=O)N[C@@H](CO)C(=O)N[C@@H](CC(=O)O)C(=O)N[C@H](C(=O)N[C@@H](CO)C(=O)N[C@@H](CO)C(=O)N[C@@H](Cc1ccc(O)cc1)C(=O)N[C@@H](CC(C)C)C(=O)N[C@@H](CCC(=O)O)C(=O)N[C@@H](CCC(=O)O)C(=O)N[C@@H](CCC(N)=O)C(=O)N[C@@H](C)C(=O)N[C@@H](C)C(=O)N[C@@H](CCCNC(=N)N)C(=O)N[C@@H](CCCCNC(=O)COCCOCCNC(=O)COCCOCCNC(=O)CC[C@H](NC(=O)CCCCCCCCCCCCCCCCC(=O)O)C(=O)O)C(=O)N[C@@H](Cc1ccccc1)C(=O)N[C@H](C(=O)N[C@@H](C)C(=O)N[C@@H](Cc1c[nH]c2ccccc12)C(=O)N[C@@H](CC(C)C)C(=O)N[C@H](C(=O)N[C@@H](CCCNC(=N)N)C(=O)NCC(=O)N[C@@H](CCCNC(=N)N)C(=O)NCC(=O)O)C(C)C)[C@@H](C)CC)C(C)C)[C@@H](C)O)[C@@H](C)O)C(C)C` [Example 6a] (H-IV[Lac(3-(imidazol-4-yl))][Aib]EGTFTSDVSSYLEEQAARK([AEEA-AEEA-γGlu-C18 diacid])FIAWLVRGRG-OH), for which, where the note is “buffer, pH 7.4”, the half-life at 1 mg/mL was 11 h.
